In patent US10508077B2 (FORMA Therapeutics, Inc., priority 2015, dated 2019):

Legend:
[1] = target: T1, Full length human recombinant HDAC8 protein (Homo sapiens, UniProt Q9BY41); assay: In vitro histone deacetylase assay: enzymatic HDAC8 assay, electrophoretic mobility shift; format: biochemical; settings: substrate RHKK(Ac)-NH2, 1 nM enzyme, compounds listed under IC50 range headings
T1 construct: Full length human recombinant HDAC8 protein was expressed in baculoviral system; made in house
T1 sequence (Q9BY41 1-377): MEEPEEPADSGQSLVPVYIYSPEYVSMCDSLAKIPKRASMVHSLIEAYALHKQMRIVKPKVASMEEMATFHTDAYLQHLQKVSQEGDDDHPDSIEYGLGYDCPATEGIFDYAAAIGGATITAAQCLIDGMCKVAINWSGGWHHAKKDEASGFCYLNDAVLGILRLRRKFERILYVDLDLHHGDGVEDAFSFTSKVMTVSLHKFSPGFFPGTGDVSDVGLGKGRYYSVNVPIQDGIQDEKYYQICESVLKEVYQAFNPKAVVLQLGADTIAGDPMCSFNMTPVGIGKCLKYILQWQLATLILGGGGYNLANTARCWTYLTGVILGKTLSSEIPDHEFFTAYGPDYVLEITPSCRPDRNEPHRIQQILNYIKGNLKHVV
Outline: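 Readout was microfluidic mobility-shift separation of deacetylated product from fluorescent RHKK(Ac)-NH2 substrate (2 µM), after reaction with 1 nM recombinant full-length human HDAC8 at 25 °C, pH 7.5, stopped with SDS. Twelve 3-fold-spaced concentrations tested; product/sum ratios normalized to controls and fitted with a 4-parameter model for IC50.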

[2] = target: T2, Recombinant N-terminal GST tag full-length human HDAC8 (Homo sapiens, UniProt Q9BY41); assay: HDAC8 probe binding assay, time resolved fluorescence (TRF); settings: fluorescein labeled pan-HDAC inhibitor probe, 16 hours incubation, compounds listed under IC50 range headings
T2 construct: Recombinant N-terminal GST tag full-length human HDAC8; purchased SignalChem H90-30G-1000; host or cells: Sf9 insect cells (baculovirus)
T2 sequence (Q9BY41 1-377): T1 sequence (Q9BY41 1-377)
Experimental: The HDAC8 probe binding assay was performed using a time resolved fluorescence (TRF) assay format. Recombinant N-terminal GST tag full-length human HDAC8 was expressed and purified from baculovirus in Sf9 insect cells (SignalChem, #H90-30G-1000), Each assay was performed in 1536 black well microplates (Corning, #3936) in a final volume of 4 μL in assay buffer containing 50 mM HEPES (pH 7.5), 50 mM KCl, 50 mM NaCl, 0.5 mM GSH (L-Glutathione reduced, Sigma #G4251), 0.03% BGG (0.22 μM filtered, Sigma, #G7516-25G), and 0.01% Triton X-100 (Sigma, #T9284-10L). 20 nL of 10-point, 3-fold serial dilution in DMSO was pre-dispensed into respective wells of 1536 assay plates for a final test concentration range of 25 μM to 1.3 nM respectively. The final concentration in the assay of HDAC8 and probe (a fluorescein labeled pan-HDAC inhibitor) was 2.5 nM and 1.5 nM respectively. 2 μL of 2× probe and 2× anti-GST Terbium (Cisbio, #61GSTXLB) was added to assay plates followed by 2 μL of 2× HDAC8. Plates were incubated for 16 hours at room temperature before time resolved fluorescence was read on the Envision (Excitation at 340 nm, and Emission at 485 nm and 535 nm, Perkin Elmer).
Data from HDAC8 Assays were reported as percent inhibition (inh) compared with control wells based on the following equation: % inh=1−((FLU−AveLow)/(AveHigh−AveLow)) where FLU=measured time resolved fluorescence. AveLow=average time resolved fluorescence of no enzyme control (n=32). AveHigh=average time resolved fluorescence of DMSO control (n=32). IC50 values were determined by curve fitting of the standard 4 parameter logistic fitting algorithm included in the Activity Base software package: IDBS XE Designer Model205. Data is fitted using the Levenburg Marquardt algorithm.

## O=C(/C=C/c1ccccc1N1CC[C@H](c2ccccc2)C1=O)NO (single isomer, unassigned) [Example I-327]
[1]
  IC50: < 1000 nM
[2]
  IC50: ≤ 1000 nM

## O=C(/C=C/c1ccccc1N1CC[C@@H](c2ccccc2)C1=O)NO (single isomer, unassigned) [Example I-328]
[1]
  IC50: < 1000 nM
[2]
  IC50: ≤ 1000 nM

## O=C(/C=C/c1ccccc1NCc1ccccc1)NO [Example I-40]
[1]
  IC50: < 1000 nM
[2]
  IC50: ≤ 1000 nM

## O=C(/C=C/c1ccccc1NC(=O)c1cccc(C(F)(F)F)c1)NO [Example I-41, (E)-N-(2-(3-(hydroxyamino)-3-oxoprop-1-en-1-yl)phenyl)-3-(trifluoromethyl)benazmide]
[1]
  IC50: < 1000 nM
[2]
  IC50: ≤ 1000 nM

## CC(=O)Nc1cccc(CNc2ccccc2/C=C/C(=O)NO)c1 [Example I-43, (E)-3-(2-((3-acetamidobenzyl)amino)phenyl)-N-hydroxyacrylamide]
[1]
  IC50: < 1000 nM
[2]
  IC50: 1000 to 100000 nM

## N#Cc1cccc(C(=O)Nc2ccccc2/C=C/C(=O)NO)c1 [Example I-44, (E)-3-cyano-N-(2-(3-(hydroxyamino)-3-oxoprop-1-en-1-yl)phenyl)benzamide]
[1]
  IC50: < 1000 nM
[2]
  IC50: ≤ 1000 nM

## N#Cc1cccc(CNc2ccccc2/C=C/C(=O)NO)c1 [Example I-45, (E)-3-(2-((3-cyanobenzyl)amino)phenyl)-N-hydroxyacrylamide]
[1]
  IC50: < 1000 nM
[2]
  IC50: 1000 to 100000 nM

## O=C(/C=C/c1ccccc1NCc1cccc(CCCO)c1)NO [Example I-48, (E)-N-hydroxy-3-(2-((3-(3-hydroxypropyl)benzyl)amino)phenyl)acrylamide]
[1]
  IC50: < 1000 nM
[2]
  IC50: 1000 to 100000 nM

## O=C(/C=C/c1ccccc1NC(=O)c1cccc(CCCO)c1)NO [Example I-49, (E)-N-(2-(3-(hydroxyamino)-3-oxoprop-1-en-1-yl)phenyl)-3-(3-hydroxypropyl)benzamide]
[1]
  IC50: < 1000 nM
[2]
  IC50: ≤ 1000 nM

## CN(C(=O)c1cccc(C(F)(F)F)c1)c1ccccc1/C=C/C(=O)NO [Example I-54, (E)-N-(2-(3-(hydroxyamino)-3-oxoprop-1-en-1-yl)phenyl)-N-methyl-3-(trifluoromethyl)benzamide]
[1]
  IC50: < 1000 nM
[2]
  IC50: ≤ 1000 nM

## O=C(/C=C/c1ccccc1NC(=O)c1ccc(C(F)(F)F)cc1)NO [Example I-61, (E)-N-(2-(3-(hydroxyamino)-3-oxoprop-1-en-1-yl)phenyl)-4-(trifluoromethyl)benzamide]
[1]
  IC50: < 1000 nM
[2]
  IC50: ≤ 1000 nM

## O=C(/C=C/c1ccccc1NC(=O)c1ccc2[nH]ccc2c1)NO [Example I-62, (E)-N-(2-(3-(hydroxyamino)-3-oxoprop-1-en-1-yl)phenyl)-1H-indole-5-carboxamide]
[1]
  IC50: < 1000 nM
[2]
  IC50: ≤ 1000 nM

## O=C(/C=C/c1ccccc1NC(=O)C1CCc2ccccc2C1)NO (stereo not drawn) [Example I-65, (E)-N-(2-(3-(hydroxyamino)-3-oxoprop-1-en-1-yl)phenyl)-1,2,3,4-tetrahydronaphthalene-2-carboxamide]
[1]
  IC50: < 1000 nM
[2]
  IC50: ≤ 1000 nM

## Cc1ccc(CC(=O)Nc2ccccc2/C=C/C(=O)NO)cc1 [Example I-66, (E)-N-hydroxy-3-(2-(2-(p-tolyl)acetamido)phenyl)acrylamide]
[1]
  IC50: < 1000 nM
[2]
  IC50: ≤ 1000 nM

## CC(C)CCC(=O)Nc1ccccc1/C=C/C(=O)NO [Example I-67, (E)-N-(2-(3-(hydroxyamino)-3-oxoprop-1-en-1-yl)phenyl)-4-methylpentanamide]
[1]
  IC50: < 1000 nM
[2]
  IC50: ≤ 1000 nM

## O=C(/C=C/c1ccccc1NC(=O)CC1CCCC1)NO [Example I-68, (E)-3-(2-(2-cyclopentylacetamido)phenyl)-N-hydroxyacrylamide]
[1]
  IC50: < 1000 nM
[2]
  IC50: ≤ 1000 nM

## O=C(/C=C/c1ccccc1N1CCCC12CN(C(=O)Cc1ccccc1)C2)NO [Example I-561, (E)-N-hydroxy-3-(2-(2-(2-phenylacetyl)-2,5-diazaspiro[3.4]octan-5-yl)phenyl)acrylamide]
[2]
  IC50: ≤ 1000 nM

## O=C(/C=C/c1ccccc1N1CCCC12CN(C(=O)Cc1ccc(F)cc1)C2)NO [Example I-562]
[2]
  IC50: ≤ 1000 nM

## O=C(/C=C/c1c(Cl)cccc1NC(=O)c1ccccc1Oc1ccc(F)cc1)NO [Example I-563, N-{3-chloro-2-[(1E)-2-(hydroxycarbamoyl)eth-1-en-1-yl]phenyl}-2-(4-fluorophenoxy)benazmide]
[2]
  IC50: ≤ 1000 nM

## O=C(/C=C/c1ccc(Cl)cc1NC(=O)c1ccccc1Oc1ccc(F)cc1)NO [Example I-564, N-{5-chloro-2-[(1E)-2-(hydroxycarbamoyl)eth-1-en-1-yl]phenyl}-2-(4-fluorophenoxy)benzamide]
[2]
  IC50: ≤ 1000 nM

## O=C(/C=C/c1ccccc1N1CCCC12CN(C(=O)C1CCCC1)C2)NO [Example I-565, (E)-3-(2-(2-(cyclopentanecarbonyl)-2,5-diazaspiro[3.4]octan-5-yl)phenyl)-N-hydroxyacrylamide]
[2]
  IC50: ≤ 1000 nM

## O=C(/C=C/c1ccccc1N1CCCC12CN(C(=O)CC(F)(F)F)C2)NO [Example I-566, (E)-N-hydroxy-3-(2-(2-(3,3,3-trifluoropropanoyl)-2,5-diazaspiro[3.4]octan-5-yl)phenyl)acrylamide]
[2]
  IC50: ≤ 1000 nM

## O=C(/C=C/c1ccccc1N1CCCC12CN(C(=O)C1CCCCC1)C2)NO [Example I-567, (E)-3-(2-(2-(cyclohexanecarbonyl)-2,5-diazaspiro[3.4]octan-5-yl)phenyl)-N-hydroxyacrylamide]
[2]
  IC50: 1000 to 100000 nM

## CC1(C(=O)N2CC3(CCCN3c3ccccc3/C=C/C(=O)NO)C2)CCCCC1 [Example I-568, (E)-N-hydroxy-3-(2-(2-(1-methylcyclohexane-1-carbonyl)-2,5-diazaspiro[3.4]octan-5-yl)phenyl)acrylamide]
[2]
  IC50: ≤ 1000 nM

## CC(C)(C)C(=O)N1CC2(CCCN2c2ccccc2/C=C/C(=O)NO)C1 [Example I-569]
[2]
  IC50: ≤ 1000 nM

## O=C(/C=C/c1cc(Cl)ccc1NC(=O)c1cccnc1Oc1ccccc1)NO [Example I-570, N-{4-chloro-2-[(1E)-2-(hydroxycarbamoyl)eth-1-en-1-yl]phenyl}-2-phenoxypyridine-3-carboxamide]
[2]
  IC50: ≤ 1000 nM

## O=C(/C=C/c1cc(Cl)ccc1NC(=O)c1cccnc1Oc1ccc(Cl)cc1)NO [Example I-572, N-{4-chloro-2-[(1E)-2-(hydroxycarbamoyl)eth-1-en-1-yl]phenyl}-2-(4-chlorophenoxy)pyridine-3-carboxamide]
[2]
  IC50: ≤ 1000 nM

## COc1ccc(Oc2ccccc2C(=O)Nc2ccc(Cl)cc2/C=C/C(=O)NO)cc1 [Example I-573, N-{4-chloro-2-[(1E)-2-(hydroxycarbamoyl)eth-1-en-1-yl]phenyl}-2-(4-methoxyphenoxy)benzamide]
[2]
  IC50: ≤ 1000 nM

## O=C(/C=C/c1ccccc1N1CCC2(CCCN2C(=O)c2ccc(F)cc2)C1)NO (stereo not drawn) [Example I-575, (E)-3-(2-(1-(4-fluorobenzoyl)-1,7-diazaspiro[4.4]nonan-7-yl)phenyl)-N-hydroxyacrylamide]
[2]
  IC50: ≤ 1000 nM

## O=C(/C=C/c1ccccc1N1CCC2(CCCN2C(=O)CC(F)(F)F)C1)NO (stereo not drawn) [Example I-576, (E)-N-hydroxy-3-(2-(1-(3,3,3-trifluoropropanoyl)-1,7-diazaspiro[4.4]nonan-7-yl)phenyl)acrylamide]
[2]
  IC50: ≤ 1000 nM

## O=C(/C=C/c1ccccc1N1CCC2(CCCN2C(=O)Cc2ccccc2)C1)NO (stereo not drawn) [Example I-579, (E)-N-hydroxy-3-(2-(1-(2-phenylacetyl)-1,7-diazaspiro[4.4]nonan-7-yl)phenyl)acrylamide]
[2]
  IC50: 1000 to 100000 nM

## O=C(/C=C/c1ccccc1N1CCN(c2ccc(Cl)c(C(F)(F)F)c2)CC1=O)NO [Example I-582, (E)-3-(2-(4-(4-chloro-3-(trifluoromethyl)phenyl)-2-oxopiperazin-1-yl)phenyl)-N-hydroxyacrylamide]
[2]
  IC50: 1000 to 100000 nM
